Test system: T1, SpSL (two-domain laccase of Streptomyces puniceus)
T1 construct: TAT signal peptide (1-34) removed: forward primer GGATCC-GAGAAGCCGCCCCG starts the insert at EKPP; pQE-30 (His-tag, cleavage not mentioned), E. coli M15 (pREP4), HisTrap; precursor 344 residues; 110 kDa native homotrimer
Assay: oxidation kinetics, nonlinear regression
Type: biochemical
Settings: apparent constant, co-substrate O2
Text: oxidation kinetics, nonlinear regression on SpSL (two-domain laccase of Streptomyces puniceus)

[1] = pH of kinetics not printed (alkaline optimum)

| Km [1] [µM] | Km (pH of kinetics not printed (routine ABTS assay: 20 mM Na-acetate pH 5.0, 420 nm)) [µM] | SMILES |
| --- | --- | --- |
| 5700 ± 250 |  | COc1ccccc1O [2-Methoxyphenol] |
|  | 370 ± 21 | CCn1c(=NN=c2sc3cc(S(=O)(=O)O)ccc3n2CC)sc2cc(S(=O)(=O)O)ccc21 [ABTS] |
| 1150 ± 100 |  | COc1cccc(OC)c1O [2,6-Dimethoxyphenol] |
